Experimental data reported in patent US11945822B2, “Pyrazolo-triazine and/or pyrazolo-pxrimidine derivatives as selective inhibitor of cyclin dependent kinase” (QURIENT CO., LTD., priority 2018, dated 2024).

These compounds were tested against T1, CDK2/Cyclin A (Homo sapiens, UniProt P24941) (assay: Enzymatic assay for CDK2 (FRET based LANCE Ultra kinase assay)). Conditions: read-out: CDK2 enzymatic activity (IC50 range).
T1 construct: purchased Invitrogen PV6290
Type: biochemical
Summary of the method: (§1)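 TR-FRET (LANCE Ultra) kinase assay at ATP Km, ULight-MBP peptide substrate (68 nM), 8-dose 4-fold compound series in DMSO. Enzymes: […]; 60 min at 23° C., stopped with EDTA plus Eu-anti-phospho-MBP antibody, read 665/615 nm after 60 min.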

Row | IC50 [nM] | Compound
1 | > 1000 | CC(C)c1cnn2c(NCc3c(Cl)cccc3-n3ccc(N4CCOCC4)n3)nc(N3CCC(N)CC3)nc12 [Compound 202]
2 | > 1000 | CC(C)c1cnn2c(NCc3c(Cl)cccc3-n3cc(N4CCOCC4)cn3)nc(N3CCC(N)CC3)nc12 [Compound 203]
3 | > 1000 | CC1CCN(c2cnn(-c3cccc(Cl)c3CNc3nc(N4CCC(N)CC4)nc4c(C(C)C)cnn34)c2)CC1 [Compound 204]
4 | > 1000 | CC(C)c1cnn2c(NCc3c(Cl)cccc3-n3ccc(C(=O)NC4COC4)n3)nc(N3CCC(N)CC3)nc12 [Compound 205]

What follows are compounds tested on HCT116 (assay: Cellular HCT116 viability assay (CellTiter-Glo, 72 hours)). Conditions: Homo sapiens, HCT-116.
Type: cell-based
Procedure: (§2) All cell lines were routinely tested for mycoplasma.
(§3) The effect of the CDK7 inhibitor to inhibit the growth of target cancer cells was evaluated through the 72 hours time period of viability assay. Briefly, the candidate cell line ware plated in 96 well plate at the following density of cells respectively. […] DMSO solvent without compound served as a control and final DMSO concentration less than 0.1%. After 72 hours of incubation at 37° C., 5% CO2 incubator, cells were analyzed for the viability using the CellTiter-Glo Luminescent Cell Viability Assay (Promega, Cat #G7570). All viability assays were performed in duplicate and Luminescence was read using an Envision (Perkin Elmer, USA). Data was analyzed using XLfit software.

Row | IC50 [nM] | Compound
5 | < 1000 | CC(C)c1cnn2c(NCc3c(Cl)cccc3-n3ccc(N4CCOCC4)n3)nc(N3CCC(N)CC3)nc12 [Compound 202]
6 | < 1000 | CC(C)c1cnn2c(NCc3c(Cl)cccc3-n3cc(N4CCOCC4)cn3)nc(N3CCC(N)CC3)nc12 [Compound 203]
7 | < 1000 | CC1CCN(c2cnn(-c3cccc(Cl)c3CNc3nc(N4CCC(N)CC4)nc4c(C(C)C)cnn34)c2)CC1 [Compound 204]
8 | < 1000 | CC(C)c1cnn2c(NCc3c(Cl)cccc3-n3ccc(C(=O)NC4COC4)n3)nc(N3CCC(N)CC3)nc12 [Compound 205]

What follows are compounds tested on H460 (assay: Cellular H460 viability assay (CellTiter-Glo, 72 hours)). Conditions: Homo sapiens, NCI-H460.
Type: cell-based
Summary of the method: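 CellTiter-Glo luminescence read in duplicate after 72 h compound exposure (37 °C, 5% CO2); DMSO-only control, final DMSO under 0.1%.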

Row | IC50 [nM] | Compound
9 | < 1000 | CC(C)c1cnn2c(NCc3c(Cl)cccc3-n3ccc(N4CCOCC4)n3)nc(N3CCC(N)CC3)nc12 [Compound 202]
10 | < 1000 | CC(C)c1cnn2c(NCc3c(Cl)cccc3-n3cc(N4CCOCC4)cn3)nc(N3CCC(N)CC3)nc12 [Compound 203]
11 | < 1000 | CC1CCN(c2cnn(-c3cccc(Cl)c3CNc3nc(N4CCC(N)CC4)nc4c(C(C)C)cnn34)c2)CC1 [Compound 204]
12 | < 1000 | CC(C)c1cnn2c(NCc3c(Cl)cccc3-n3ccc(C(=O)NC4COC4)n3)nc(N3CCC(N)CC3)nc12 [Compound 205]

These compounds were tested against T2, CDK5/p25 (Homo sapiens, UniProt Q00535) (assay: Enzymatic assay for CDK5 (FRET based LANCE Ultra kinase assay)). Conditions: read-out: CDK5 enzymatic activity (IC50 range).
T2 construct: purchased Invitrogen PR8543B
Type: biochemical
Summary of the method: as §1

T2 sequence (Q00535 whole entry): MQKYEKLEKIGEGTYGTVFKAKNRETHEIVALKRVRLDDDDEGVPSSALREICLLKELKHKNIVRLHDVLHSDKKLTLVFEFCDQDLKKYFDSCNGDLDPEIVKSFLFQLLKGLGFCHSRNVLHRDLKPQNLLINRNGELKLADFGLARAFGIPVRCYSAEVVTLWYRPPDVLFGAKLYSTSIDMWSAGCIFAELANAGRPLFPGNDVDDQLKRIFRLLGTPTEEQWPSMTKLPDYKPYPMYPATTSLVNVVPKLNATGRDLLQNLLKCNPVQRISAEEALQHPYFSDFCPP
T2 sequence (Q15078 99-307 partner limits assumed): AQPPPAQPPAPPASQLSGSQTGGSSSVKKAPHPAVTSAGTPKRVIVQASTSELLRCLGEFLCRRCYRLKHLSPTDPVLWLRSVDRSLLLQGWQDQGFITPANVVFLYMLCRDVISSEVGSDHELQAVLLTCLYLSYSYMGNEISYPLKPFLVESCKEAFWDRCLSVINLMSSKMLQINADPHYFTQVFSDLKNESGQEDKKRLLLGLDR

Row | IC50 [nM] | Compound
13 | > 1000 | CC(C)c1cnn2c(NCc3c(Cl)cccc3-n3ccc(N4CCOCC4)n3)nc(N3CCC(N)CC3)nc12 [Compound 202]
14 | > 1000 | CC(C)c1cnn2c(NCc3c(Cl)cccc3-n3cc(N4CCOCC4)cn3)nc(N3CCC(N)CC3)nc12 [Compound 203]
15 | > 1000 | CC1CCN(c2cnn(-c3cccc(Cl)c3CNc3nc(N4CCC(N)CC4)nc4c(C(C)C)cnn34)c2)CC1 [Compound 204]
16 | 100 to 1000 | CC(C)c1cnn2c(NCc3c(Cl)cccc3-n3ccc(C(=O)NC4COC4)n3)nc(N3CCC(N)CC3)nc12 [Compound 205]

Each compound was assayed against T3, CDK7/Cyclin H/MNAT1 (Homo sapiens, UniProt P50613) (assay: Enzymatic assay for CDK7 (FRET based LANCE Ultra kinase assay)). Conditions: CDK7 over CDK1.
T3 construct: purchased Invitrogen PR6749B
Type: biochemical
Summary of the method: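 Inhibition was measured at Km ATP by time-resolved FRET between a Eu anti-phospho antibody and a phosphorylated ULight peptide. The enzyme was the purified CDK7/cyclin complex, and data were curve-fitted.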

T3 sequence (P50613 whole entry): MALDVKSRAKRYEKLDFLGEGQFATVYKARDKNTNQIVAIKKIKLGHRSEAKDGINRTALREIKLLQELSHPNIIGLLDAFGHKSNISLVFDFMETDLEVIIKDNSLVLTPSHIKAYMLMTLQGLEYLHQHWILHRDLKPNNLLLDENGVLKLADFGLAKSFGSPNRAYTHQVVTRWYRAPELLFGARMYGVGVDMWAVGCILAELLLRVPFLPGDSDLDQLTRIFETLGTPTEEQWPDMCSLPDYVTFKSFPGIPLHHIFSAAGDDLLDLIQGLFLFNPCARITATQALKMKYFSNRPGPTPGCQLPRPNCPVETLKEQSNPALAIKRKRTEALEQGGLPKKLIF
T3 sequence (P51946 whole entry partner): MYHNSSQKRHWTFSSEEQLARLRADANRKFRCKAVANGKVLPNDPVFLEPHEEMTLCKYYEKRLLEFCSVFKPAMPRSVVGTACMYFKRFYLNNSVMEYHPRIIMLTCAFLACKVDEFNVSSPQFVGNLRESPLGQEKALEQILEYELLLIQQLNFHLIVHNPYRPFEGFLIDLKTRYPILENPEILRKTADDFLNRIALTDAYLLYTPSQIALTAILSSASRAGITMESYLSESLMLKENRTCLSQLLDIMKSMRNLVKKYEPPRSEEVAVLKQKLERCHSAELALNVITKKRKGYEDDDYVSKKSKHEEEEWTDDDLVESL
T3 sequence (P51948 whole entry partner): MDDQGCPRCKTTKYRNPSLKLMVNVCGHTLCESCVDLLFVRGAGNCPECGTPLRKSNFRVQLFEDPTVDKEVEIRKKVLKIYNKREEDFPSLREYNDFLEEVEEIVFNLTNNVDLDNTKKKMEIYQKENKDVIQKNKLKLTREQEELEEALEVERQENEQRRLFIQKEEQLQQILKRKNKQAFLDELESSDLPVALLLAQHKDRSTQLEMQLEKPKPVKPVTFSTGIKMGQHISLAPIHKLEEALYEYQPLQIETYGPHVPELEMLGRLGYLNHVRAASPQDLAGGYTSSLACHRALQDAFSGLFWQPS

Row | CDK1/CDK7: Selectivity of CDK7 inhibition over CDK1 inhibition | Compound
17 | A (A=greater than 200 fold) | CC(C)c1cnn2c(NCc3c(Cl)cccc3-n3ccc(N4CCOCC4)n3)nc(N3CCC(N)CC3)nc12 [Compound 202]
18 | A (A=greater than 200 fold) | CC(C)c1cnn2c(NCc3c(Cl)cccc3-n3cc(N4CCOCC4)cn3)nc(N3CCC(N)CC3)nc12 [Compound 203]
19 | A (A=greater than 200 fold) | CC1CCN(c2cnn(-c3cccc(Cl)c3CNc3nc(N4CCC(N)CC4)nc4c(C(C)C)cnn34)c2)CC1 [Compound 204]
20 | A (A=greater than 200 fold) | CC(C)c1cnn2c(NCc3c(Cl)cccc3-n3ccc(C(=O)NC4COC4)n3)nc(N3CCC(N)CC3)nc12 [Compound 205]

Same assay, conditions: CDK7 over CDK2

Row | CDK2/CDK7: Selectivity of CDK7 inhibition over CDK2 inhibition | Compound
21 | A (A=greater than 200 fold) | CC(C)c1cnn2c(NCc3c(Cl)cccc3-n3ccc(N4CCOCC4)n3)nc(N3CCC(N)CC3)nc12 [Compound 202]
22 | A (A=greater than 200 fold) | CC(C)c1cnn2c(NCc3c(Cl)cccc3-n3cc(N4CCOCC4)cn3)nc(N3CCC(N)CC3)nc12 [Compound 203]
23 | A (A=greater than 200 fold) | CC1CCN(c2cnn(-c3cccc(Cl)c3CNc3nc(N4CCC(N)CC4)nc4c(C(C)C)cnn34)c2)CC1 [Compound 204]
24 | A (A=greater than 200 fold) | CC(C)c1cnn2c(NCc3c(Cl)cccc3-n3ccc(C(=O)NC4COC4)n3)nc(N3CCC(N)CC3)nc12 [Compound 205]

Same assay, conditions: CDK7 over CDK5

Row | CDK5/CDK7: Selectivity of CDK7 inhibition over CDK5 inhibition | Compound
25 | A (A=greater than 200 fold) | CC(C)c1cnn2c(NCc3c(Cl)cccc3-n3ccc(N4CCOCC4)n3)nc(N3CCC(N)CC3)nc12 [Compound 202]
26 | A (A=greater than 200 fold) | CC(C)c1cnn2c(NCc3c(Cl)cccc3-n3cc(N4CCOCC4)cn3)nc(N3CCC(N)CC3)nc12 [Compound 203]
27 | A (A=greater than 200 fold) | CC1CCN(c2cnn(-c3cccc(Cl)c3CNc3nc(N4CCC(N)CC4)nc4c(C(C)C)cnn34)c2)CC1 [Compound 204]

Row | Compound | CDK5/CDK7: Selectivity of CDK7 inhibition over CDK5 inhibition
28 | CC(C)c1cnn2c(NCc3c(Cl)cccc3-n3ccc(C(=O)NC4COC4)n3)nc(N3CCC(N)CC3)nc12 [Compound 205] | B (B=less than 200 fold, but greater than 20 fold)

Same assay, conditions: read-out: CDK7 enzymatic activity (IC50 range)

Row | IC50 [nM] | Compound
29 | < 100 | CC(C)c1cnn2c(NCc3c(Cl)cccc3-n3ccc(N4CCOCC4)n3)nc(N3CCC(N)CC3)nc12 [Compound 202]
30 | < 100 | CC(C)c1cnn2c(NCc3c(Cl)cccc3-n3cc(N4CCOCC4)cn3)nc(N3CCC(N)CC3)nc12 [Compound 203]
31 | < 100 | CC1CCN(c2cnn(-c3cccc(Cl)c3CNc3nc(N4CCC(N)CC4)nc4c(C(C)C)cnn34)c2)CC1 [Compound 204]
32 | < 100 | CC(C)c1cnn2c(NCc3c(Cl)cccc3-n3ccc(C(=O)NC4COC4)n3)nc(N3CCC(N)CC3)nc12 [Compound 205]

The compounds below were run on MV4-11 (assay: Cellular MV4-11 viability assay (CellTiter-Glo, 72 hours)). Conditions: Homo sapiens.
Type: cell-based
Procedure: as §2, §3

Row | IC50 [nM] | Compound
33 | < 1000 | CC(C)c1cnn2c(NCc3c(Cl)cccc3-n3ccc(N4CCOCC4)n3)nc(N3CCC(N)CC3)nc12 [Compound 202]
34 | < 1000 | CC(C)c1cnn2c(NCc3c(Cl)cccc3-n3cc(N4CCOCC4)cn3)nc(N3CCC(N)CC3)nc12 [Compound 203]
35 | < 1000 | CC1CCN(c2cnn(-c3cccc(Cl)c3CNc3nc(N4CCC(N)CC4)nc4c(C(C)C)cnn34)c2)CC1 [Compound 204]
36 | < 1000 | CC(C)c1cnn2c(NCc3c(Cl)cccc3-n3ccc(C(=O)NC4COC4)n3)nc(N3CCC(N)CC3)nc12 [Compound 205]

What follows are compounds tested against T4, CDK1/Cyclin B (Homo sapiens, UniProt P06493) (assay: Enzymatic assay for CDK1 (FRET based LANCE Ultra kinase assay)). Conditions: read-out: CDK1 enzymatic activity (IC50 range).
T4 construct: purchased Invitrogen PR4768C
Type: biochemical
Summary of the method: as §1

T4 sequence (P06493 whole entry): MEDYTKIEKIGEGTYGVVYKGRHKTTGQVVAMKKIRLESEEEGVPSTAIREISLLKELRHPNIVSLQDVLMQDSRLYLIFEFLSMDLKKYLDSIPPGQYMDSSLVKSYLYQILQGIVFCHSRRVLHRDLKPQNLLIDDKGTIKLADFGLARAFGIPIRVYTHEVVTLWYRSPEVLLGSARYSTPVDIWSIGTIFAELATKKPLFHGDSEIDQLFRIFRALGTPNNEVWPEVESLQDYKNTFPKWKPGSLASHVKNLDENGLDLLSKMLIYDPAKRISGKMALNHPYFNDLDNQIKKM
T4 sequence (P14635 whole entry partner): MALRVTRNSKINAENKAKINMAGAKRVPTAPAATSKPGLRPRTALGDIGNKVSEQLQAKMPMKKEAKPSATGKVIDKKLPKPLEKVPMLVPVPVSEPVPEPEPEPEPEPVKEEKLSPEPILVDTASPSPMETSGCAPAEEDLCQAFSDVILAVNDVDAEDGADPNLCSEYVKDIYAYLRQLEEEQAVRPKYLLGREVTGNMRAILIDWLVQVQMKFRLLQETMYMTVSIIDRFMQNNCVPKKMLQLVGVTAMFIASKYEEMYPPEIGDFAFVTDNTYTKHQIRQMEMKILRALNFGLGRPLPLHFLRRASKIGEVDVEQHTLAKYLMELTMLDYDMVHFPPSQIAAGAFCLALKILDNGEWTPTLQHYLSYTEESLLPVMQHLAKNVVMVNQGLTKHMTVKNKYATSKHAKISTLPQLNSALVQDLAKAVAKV

Row | IC50 [nM] | Compound
37 | > 1000 | CC(C)c1cnn2c(NCc3c(Cl)cccc3-n3ccc(N4CCOCC4)n3)nc(N3CCC(N)CC3)nc12 [Compound 202]
38 | > 1000 | CC(C)c1cnn2c(NCc3c(Cl)cccc3-n3cc(N4CCOCC4)cn3)nc(N3CCC(N)CC3)nc12 [Compound 203]
39 | > 1000 | CC1CCN(c2cnn(-c3cccc(Cl)c3CNc3nc(N4CCC(N)CC4)nc4c(C(C)C)cnn34)c2)CC1 [Compound 204]
40 | > 1000 | CC(C)c1cnn2c(NCc3c(Cl)cccc3-n3ccc(C(=O)NC4COC4)n3)nc(N3CCC(N)CC3)nc12 [Compound 205]
